Legend:
C. albicans = assay: OD600 assay under simulated GI conditions, fungal contamination with or without anti-fungal recovery media; format: cell-based; conditions: TSB containing 2.5 mg/L Amphotericin B; C. albicans 1×10^3 CFU/mL; FaSSIF-V2; 4 hour incubation
Protocol: Experiments were performed in order to simulate an ingestible device that contains sterile media that is inoculated with a sample of fluid from the GI tract and incubated in transit. The experiments were designed to evaluate whether the assay could predict total bacterial counts over a dynamic range of 10^3 CFU/mL to 10^7 CFU/mL under a series of different conditions of pH, […], fungal strains, mucin concentrations. The samples were also incubated under conditions of shear forces and temperature that simulate conditions of an ingestible device in transit within the GI tract.
Gram-negative (Escherichia coli ATCC 25922) and Gram-positive (Staphylococcus epidermidis ATCC 12228) bacterial cultures were diluted in a standard growth media (TSB) over a dynamic range of 10^7 CFU/mL to 10^3 CFU/mL. The assay utilized […], under shear (110 rpm) and at body temperature (37° C.) over a 4 hour incubation period to simulate transit of an ingestible device within the GI tract. Experiments were performed under various conditions as indicated including: different pH levels (6.5, 7.0 and 7.8); […]; […] […] Experiments were conducted in quintuplicate. All testing was completed in simulated jejunal fluid (FaSSIF-V2; available from BioRelevant (London, UK) Cat: V2FA501 Lot: 02-1408-07, pH 6.5) using a 50 μL sample volume and a 4 hour incubation period. […]

cyclophilin = cyclophilin (Homo sapiens, UniProt P62937); conditions: voclosporin versus cyclosporine A; cited from earlier work
Sequence of cyclophilin (P62937 whole entry): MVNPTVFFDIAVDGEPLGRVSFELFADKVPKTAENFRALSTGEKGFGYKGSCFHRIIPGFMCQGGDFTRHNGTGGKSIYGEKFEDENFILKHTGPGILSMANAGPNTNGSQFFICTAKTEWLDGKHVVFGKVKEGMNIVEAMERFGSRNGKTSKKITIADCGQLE

[1] = tested on: inflammatory bowel disease (IBD); conditions: numerous murine models; cited from earlier work
human IL-6 = human IL-6 (Homo sapiens, UniProt P05231); conditions: cited from earlier work
Sequence of human IL-6 (P05231 30-212): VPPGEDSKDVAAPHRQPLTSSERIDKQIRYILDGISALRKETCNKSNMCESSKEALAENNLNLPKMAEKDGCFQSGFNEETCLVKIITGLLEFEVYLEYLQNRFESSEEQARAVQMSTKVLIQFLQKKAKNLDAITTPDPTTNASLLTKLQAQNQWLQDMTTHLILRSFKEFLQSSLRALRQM

[2] = binding to lipid A, the common moiety of LPS; cited from earlier work

## C[C@@H]1[C@H](O)[C@@H](C)/C=C/C=C/C=C/C=C/C=C/C=C/C=C/[C@H](O[C@@H]2O[C@H](C)[C@@H](O)[C@H](N)[C@@H]2O)C[C@@H]2O[C@](O)(C[C@@H](O)C[C@@H](O)[C@H](O)CC[C@@H](O)C[C@@H](O)CC(=O)O[C@H]1C)C[C@H](O)[C@H]2C(=O)O [amphotericin B, Amphotericin B]
C. albicans
  background fungal growth (plate counts and optical density): reduced the background fungal growth

## C=C/C=C/C[C@@H](C)[C@@H](O)[C@H]1C(=O)N[C@@H](CC)C(=O)N(C)CC(=O)N(C)[C@@H](CC(C)C)C(=O)N[C@@H](C(C)C)C(=O)N(C)[C@@H](CC(C)C)C(=O)N[C@@H](C)C(=O)N[C@H](C)C(=O)N(C)[C@@H](CC(C)C)C(=O)N(C)[C@@H](CC(C)C)C(=O)N(C)[C@@H](C(C)C)C(=O)N1C [voclosporin]
cyclophilin
  binding affinity for cyclophilin: comparable

## L-glutamic acid polymer with L-alanine, L-lysine and L-tyrosine, acetate (salt) [Glatiramer acetate]
[1]
  effect on inflammation and pathological manifestations of IBD: reduce inflammation and ameliorate the pathological manifestations

## siltuximab: a chimeric, human-murine, immunoglobulin (Ig) Gκ mAb that binds and neutralizes human IL-6
Human IL-6
  binds and neutralizes human IL-6: high affinity and specificity

B1: Lipopolysaccharide Binding Protein (LBP): Lipopolysaccharide Binding Protein, binds with high affinity to lipid A, the common moiety of LPS (protein, UniProt P18428 26-481, looked up)
Lipopolysaccharide-binding …: ANPGLVARITDKGLQYAAQEGLLALQSELLRITLPDFTGDLRIPHVGRGRYEFHSLNIHSCELLHSALRPVPGQGLSLSISDSSIRVQGRWKVRKSFFKLQGSFDVSVKGISISVNLLLGSESSGRPTVTASSCSSDIADVEVDMSGDLGWLLNLFHNQIESKFQKVLESRICEMIQKSVSSDLQPYLQTLPVTTEIDSFADIDYSLVEAPRATAQMLEVMFKGEIFHRNHRSPVTLLAAVMSLPEEHNKMVYFAISDYVFNTASLVYHEEGYLNFSITDDMIPPDSNIRLTTKSFRPFVPRLARLYPNMNLELQGSVPSAPLLNFSPGNLSVDPYMEIDAFVLLPSSSKEPVFRLSVATNVSATLTFNTSKITGFLKPGKVKVELKESKVGLFNAELLEALLNYYILNTFYPKFNDKLAEGFPLPLLKRVQLYDLGLQIHKDFLFLGANVQYMRV
[2]
  Kd: 1 nM

Source: patent US10610104B2, “Gastrointestinal tract detection methods, devices and systems” (priority 2016, dated 2020)
